Oligonucleotides are written 5' to 3', each unit as a sugar letter and its base; * is a phosphorothioate linkage, no mark a phosphodiester; rarer units and linkages stand in square brackets, end groups in braces. Plain capitals give the bases only. e = 2'-O-(2-methoxyethyl) (MOE); [5mC] = 5-methylcytosine
Test system: IKBKAP pre-mRNA (mt19-21 minigene)
Test: Exon 20 inclusion in HEK-293 cells harboring the mt19-21 IKBKAP minigene (RT-PCR)
Type: cell-based, human
Conditions: HEK-293 with mt19-21 minigene; for effect on exon 20 inclusion/skipping, in words: 0.007 nmol oligonucleotide; for % inclusion (exon 20): 0.007 nmol oligonucleotide by electroporation, RT-PCR two days later
Method: Antisense oligonucleotides were designed targeting a human IKBKAP nucleic acid and were tested for their effects on IKBKAP pre-mRNA in vitro. Together, the overlapping antisense oligonucleotides spanned the entire 74-nucleotide region of the IKBKAP exon 20 sequence, as well as the 100-nucleotide intronic regions immediately upstream and downstream of exon 20. The antisense oligonucleotides are presented in Table 1, and were designed as uniform 2′-O-methoxyethyl ribose (MOE) oligonucleotides with phosphate backbones. Each oligonucleotide is 15 nucleosides in length. All cytosine residues throughout the oligonucleotide are 5-methylcytosines. ‘Start Site’ indicates the 5′-most nucleoside to which the oligonucleotide is targeted in the human gene sequence. “Stop site” indicates the 3′-most nucleoside to which the oligonucleotide is targeted in the human gene sequence. Each oligonucleotide listed in Table 1 is targeted to the human IKBKAP genomic sequence (the complement of GENBANK Accession No NT_008470.16 truncated from nucleotides 13290828 to Ser. No. 13/358,424, designated herein as SEQ ID NO: 1). ISIS 414161 has one mismatch with SEQ ID NO: 1.
Cultured HEK-293 cells harboring the mt19-21 minigene vector construct at a density of 7×10^5 cells per well were transfected using electroporation (Gene Pulsar II apparatus, Bio-Rad) with 0.007 nmol antisense oligonucleotide, as previously described (Hua, Y., et al., 2007. PLoS Biol 5:e73). […] These oligonucleotides served as controls for non-specific effects of uniform MOE oligonucleotides with phosphate backbones. Cells harboring the wt19-21 minigene and the mt19-21 minigene alone were also cultured and were used as controls for exon 20 inclusion levels. Two days later, cDNA synthesized from total RNA extracted from HEK-293 cells was amplified using the forward primer pCDNAF and reverse primer sequence IKAP21R4 to assay the splicing pattern of expressed RNAs by RT-PCR. To calculate exon 20 inclusion levels, the PCR amplicons were labeled with α^32P-dCTP. The PCR products were then separated by native PAGE, followed by phosphorimage analysis on a FUJIFILM FLA-5100 instrument (Fuji Medical Systems USA Inc.). The band intensities were quantified using Multi Gauge software Version 2.3 (FUJIFILM), and values were normalized for the G+C content according to the DNA sequence.
Treatment with antisense oligonucleotides targeting the 3′ and 5′ splice sites caused increased skipping of exon 20.
Additional oligonucleotides were designed targeting the first 30-nucleotide stretch of ISS-40. These oligonucleotides were designed by choosing sequences shifted in one nucleotide increments upstream and downstream (i.e., a “microwalk”) of ISS-40, starting from the +6 position in exon 20. The antisense oligonucleotides are presented in Table 2 and FIG. 4D, and were designed as uniform 2′-O-methoxyethyl ribose (MOE) oligonucleotides with phosphate backbones. Each oligonucleotide is 20 nucleosides in length. All cytosine residues throughout the oligonucleotide are 5-methylcytosines. ‘Start Site’ indicates the 5′-most nucleoside to which the oligonucleotide is targeted in the human gene sequence. “Stop site” indicates the 3′-most nucleoside to which the oligonucleotide is targeted in the human gene sequence. Each oligonucleotide listed in Table 2 is targeted to intron 20 of the human IKBKAP genomic sequence (the complement of GENBANK Accession No NT_008470.16 truncated from nucleotides 13290828 to Ser. No. 13/358,424, designated herein as SEQ ID NO: 1). These oligonucleotides were tested in vitro.
Cultured HEK-293 cells harboring the mt19-21 minigene vector construct at a density of 7×10^5 cells per well were transfected using electroporation (Gene Pulsar II apparatus, Bio-Rad) with 0.007 nmol antisense oligonucleotide, as previously described (Hua, Y., et al., 2007. PLoS Biol 5:e73). […]

Substance | effect on exon 20 inclusion/skipping, in words | % inclusion (exon 20) (Table 1) [%] | % inclusion (exon 20) (Table 2 (microwalk experiment)) [%]
ISIS 414164: uniform 2′-MOE 15-mer, phosphate backbone; AGCTAACTAGTCGCA, SEQ ID NO 43, intron 20 (eAeGe[5mC]eTeAeAe[5mC]eTeAeGeTe[5mC]eGe[5mC]eA; splice-switching) | markedly increased inclusion of exon 20 | 78 | 74
ISIS 414136: uniform 2′-MOE 15-mer, phosphate backbone; ATAGCCAGGATACAC, SEQ ID NO 15, intron 19 (eAeTeAeGe[5mC]e[5mC]eAeGeGeAeTeAe[5mC]eAe[5mC]; splice-switching) | positive effect on exon 20 inclusion | 45 | 
ISIS 414168: uniform 2′-MOE 15-mer, phosphate backbone; GTCTTCACACATAAA, SEQ ID NO 47, intron 20 (eGeTe[5mC]eTeTe[5mC]eAe[5mC]eAe[5mC]eAeTeAeAeA; splice-switching) | significantly decreased the levels of the included RNA isoform | 17 | 
ISIS 414145: uniform 2′-MOE 15-mer, phosphate backbone; ATAAATTAAAGCAGT, SEQ ID NO 24, intron 19 (eAeTeAeAeAeTeTeAeAeAeGe[5mC]eAeGeT; splice-switching) |  | 3 | 
ISIS 421997: uniform 2′-MOE 20-mer, phosphate backbone; AACTAGTCGCAAACAGTACA, SEQ ID NO 66, intron 20 (eAeAe[5mC]eTeAeGeTe[5mC]eGe[5mC]eAeAeAe[5mC]eAeGeTeAe[5mC]eA; splice-switching) |  |  | 81
ISIS 414160: uniform 2′-MOE 15-mer, phosphate backbone; TACAATGGCGCTTAC, SEQ ID NO 39, intron 20 (eTeAe[5mC]eAeAeTeGeGe[5mC]eGe[5mC]eTeTeAe[5mC]; splice-switching) |  | 14 | 
ISIS 414165: uniform 2′-MOE 15-mer, phosphate backbone; TCACAAGCTAACTAG, SEQ ID NO 44, intron 20 (eTe[5mC]eAe[5mC]eAeAeGe[5mC]eTeAeAe[5mC]eTeAeG; splice-switching) | markedly increased inclusion of exon 20 | 66 | 64
ISIS 414172: uniform 2′-MOE 15-mer, phosphate backbone; ATTGTAATAAAATAC, SEQ ID NO 51, intron 20 (eAeTeTeGeTeAeAeTeAeAeAeAeTeAe[5mC]; splice-switching) |  | 31 | 
ISIS 414173: uniform 2′-MOE 15-mer, phosphate backbone; TCGAAATTGTAATAA, SEQ ID NO 52, intron 20 (eTe[5mC]eGeAeAeAeTeTeGeTeAeAeTeAeA; splice-switching) |  | 31 | 
ISIS 414146: uniform 2′-MOE 15-mer, phosphate backbone; CTTAAATAAATTAAA, SEQ ID NO 25, intron 19 (e[5mC]eTeTeAeAeAeTeAeAeAeTeTeAeAeA; splice-switching) |  | 26 | 
ISIS 414177: uniform 2′-MOE 15-mer, phosphate backbone; CTTTTCATAATTTTA, SEQ ID NO 56, intron 20 (e[5mC]eTeTeTeTe[5mC]eAeTeAeAeTeTeTeTeA; splice-switching) |  | 25 | 
ISIS 414174: uniform 2′-MOE 15-mer, phosphate backbone; AGTTCTCGAAATTGT, SEQ ID NO 53, intron 20 (eAeGeTeTe[5mC]eTe[5mC]eGeAeAeAeTeTeGeT; splice-switching) |  | 29 | 
ISIS 414147: uniform 2′-MOE 15-mer, phosphate backbone; GTTTCCCCTTGGCAT, SEQ ID NO 26, exon 20 (eGeTeTeTe[5mC]e[5mC]e[5mC]e[5mC]eTeTeGeGe[5mC]eAeT; splice-switching) |  | 3 | 
ISIS 414151: uniform 2′-MOE 15-mer, phosphate backbone; CGATGATGAACAACT, SEQ ID NO 30, exon 20 (e[5mC]eGeAeTeGeAeTeGeAeAe[5mC]eAeAe[5mC]eT; splice-switching) |  | 0 | 
ISIS 414131: uniform 2′-MOE 15-mer, phosphate backbone; AACTCTTCACAGAGA, SEQ ID NO 10, intron 19 (eAeAe[5mC]eTe[5mC]eTeTe[5mC]eAe[5mC]eAeGeAeGeA; splice-switching) |  | 30 | 
ISIS 414132: uniform 2′-MOE 15-mer, phosphate backbone; TACCTAACTCTTCAC, SEQ ID NO 11, intron 19 (eTeAe[5mC]e[5mC]eTeAeAe[5mC]eTe[5mC]eTeTe[5mC]eAe[5mC]; splice-switching) |  | 19 | 
ISIS 414155: uniform 2′-MOE 15-mer, phosphate backbone; TCTGAGCTAAAACCA, SEQ ID NO 34, exon 20 (eTe[5mC]eTeGeAeGe[5mC]eTeAeAeAeAe[5mC]e[5mC]eA; splice-switching) |  | 6 | 
ISIS 414148: uniform 2′-MOE 15-mer, phosphate backbone; TCTAAGTTTCCCCTT, SEQ ID NO 27, exon 20 (eTe[5mC]eTeAeAeGeTeTeTe[5mC]e[5mC]e[5mC]e[5mC]eTeT; splice-switching) |  | 7 | 
ISIS 414141: uniform 2′-MOE 15-mer, phosphate backbone; TTTTAATTAAGTAGA, SEQ ID NO 20, intron 19 (eTeTeTeTeAeAeTeTeAeAeGeTeAeGeA; splice-switching) |  | 24 | 
ISIS 414169: uniform 2′-MOE 15-mer, phosphate backbone; TTATTGTCTTCACAC, SEQ ID NO 48, intron 20 (eTeTeAeTeTeGeTe[5mC]eTeTe[5mC]eAe[5mC]eAe[5mC]; splice-switching) |  | 21 | 
ISIS 414175: uniform 2′-MOE 15-mer, phosphate backbone; TTTTAAGTTCTCGAA, SEQ ID NO 54, intron 20 (eTeTeTeTeAeAeGeTeTe[5mC]eTe[5mC]eGeAeA; splice-switching) |  | 27 | 
ISIS 414170: uniform 2′-MOE 15-mer, phosphate backbone; AATACTTATTGTCTT, SEQ ID NO 49, intron 20 (eAeAeTeAe[5mC]eTeTeAeTeTeGeTe[5mC]eTeT; splice-switching) |  | 32 | 
ISIS 414166: uniform 2′-MOE 15-mer, phosphate backbone; ATAAATCACAAGCTA, SEQ ID NO 45, intron 20 (eAeTeAeAeAeTe[5mC]eAe[5mC]eAeAeGe[5mC]eTeA; splice-switching) | markedly increased inclusion of exon 20 | 40 | 38
ISIS 414144: uniform 2′-MOE 15-mer, phosphate backbone; TTAAAGCAGTAACAT, SEQ ID NO 23, intron 19 (eTeTeAeAeAeGe[5mC]eAeGeTeAeAe[5mC]eAeT; splice-switching) |  | 7 | 

Reference: patent US11066668B2, “Compositions and methods for modulation of IKBKAP splicing” (Ionis Pharmaceuticals, Inc., priority 2012, dated 2021)
